This is an account of results in PubChem BioAssay AID977621 (Broad Institute, 2014).

In this assay the test system is E. coli wild-type GFP strain growth, fluorescence, 24 h. Nature of the assay: growth inhibition of wild-type GFP E. coli, dose response, H69 mutant RFP, cherry-pick (AID 977621).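 Further: wild-type GFP and H69 mutant RFP strains grown together 50/50 in each well.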
Setting [1] is: E. coli mixed culture, 24 h, measured here: total growth OD600, test 2.

Records with an inconclusive call do not appear. The source made the active and inactive calls.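 How the source made its calls: active means Wild-type ribosome reporter drop at least double the humanized mutant ribosome reporter drop, growth loss under a set limit; inconclusive means no clear call, values can overlap the other calls; inactive means the rest.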

Take `CN1OC[C@@H]2CN(C(=O)c3ccco3)[C@H](c3ccc(-c4ccc(C#N)cc4)cc3)C[C@@H]21`: the AC50 (as a rule, the concentration at which the activity in the assay is half-maximal) under setting [1] is greater than 100 µM. Under setting [1], `COc1ccccc1C1CCN(C(=O)c2cccs2)CC1` displayed an AC50 greater than 100 µM.

As for `COc1ccc(C2=Nc3ccccc3NC(=O)C2N(C(=O)c2ccnc3ccccc23)c2ccccc2)cc1` (centres undefined), the AC50 was > 100 µM (inactive). The half-maximal activity concentration (AC50) under setting [1] turned out to be 34 µM. Turning to `CC(C)CN(C(=O)c1cc([N+](=O)[O-])cc([N+](=O)[O-])c1)C1CCS(=O)(=O)C1` (centres undefined), the AC50 under setting [1] was greater than 100 µM. Still for that read-out and setting: the figure for `COc1cccc(NC(=O)COC(=O)Cc2ccc(Cl)cc2)c1` is greater than 100 µM. For `COc1cccc(C(=O)N2C[C@@H]3[C@H](c4ccccc42)[C@H](CO)N3Cc2ccccc2Cl)c1`, the AC50 was > 100 µM (inactive). Under setting [1], this compound showed a concentration at half-maximal activity (AC50) of 48.8 µM. For `NS(=O)(=O)c1cc(C(=O)OCC(=O)Nc2ccccc2[N+](=O)[O-])ccc1Cl` the same measures were > 100 µM (inactive) and greater than 100 µM. With `COc1cccc(NC(=O)C(c2ccccc2)N2CCN(c3ccccn3)CC2)c1` (centres undefined), under setting [1], the AC50 is greater than 100 µM. Consider `CCN(c1ccc(OC)cc1)S(=O)(=O)c1cc(-c2cc(C)no2)ccc1OC`, for which the AC50 is > 100 µM (inactive). Moreover, the AC50 under setting [1] came out at 36.8 µM. As to `O=S1(=O)N[C@@H](Cc2ccccc2)COc2cc(N3CCC[C@H]3CO)ccc21`, the AC50 was > 100 µM (inactive).

With `O=S(=O)(c1ccccc1)N1CC[C@@H]2[C@H](CO)Nc3ccc(Br)cc3[C@@H]21`, the AC50 under setting [1] is 43.4 µM. `O=C1NC(=O)C2(Cc3cc([N+](=O)[O-])ccc3N3CCN(C(=O)c4ccccc4)CC32)C(=O)N1` (centres undefined): the AC50 was > 100 µM (inactive).

Under setting [1], `CCN(c1ccccc1)S(=O)(=O)c1ccc(Cl)c(C(=O)NCc2ccco2)c1` registered an AC50 of 33.8 µM.

For the compound `O=C(NCc1cccnc1)C1CCN(S(=O)(=O)c2cc([N+](=O)[O-])ccc2Cl)CC1`, the concentration at half-maximal activity (AC50) under setting [1] is greater than 100 µM. The same measure, in the same setting: the figure for `Cc1noc(C)c1NC(=O)Nc1ccc2c(c1)C(=O)N([C@H](C)CO)C[C@H](C)[C@@H](CN(C)C(=O)Nc1ccc3c(c1)OCO3)OCCCC[C@@H](C)O2` is greater than 92 µM. Same read-out and setting: then `Cc1cccc(-c2ccc([C@H]3[C@@H](CO)N4CCCCN(S(=O)(=O)c5ccccc5C)C[C@H]34)cc2)c1`, with 27.2 µM; and `CCCCNC(=O)c1onc(CSc2cc(C)cc(C)c2)c1C(=O)O`, with 34.2 µM.

Regarding `CC(=O)Nc1cccc(Nc2nc(-c3ccccc3)nc3ccccc23)c1`, the AC50 was > 100 µM (inactive). The compound further displayed an AC50 under setting [1] of 5.27 µM. For `O=C(CN1CCCC1)Nc1ccccc1Sc1ccc(Cl)cc1`, the AC50 is > 100 µM (inactive). Also, the AC50 under setting [1] came out at 29.9 µM.

As to `COc1ccccc1N(C1=NCCCS1)S(=O)(=O)c1ccc(C(C)(C)C)cc1`, the AC50 was > 100 µM (inactive).

As to `N#CC1CN(Cc2ccccc2)CN(Cc2ccccc2)C1`, the AC50 was > 100 µM (inactive).

`Cc1ccc(-c2nc3ccc(NS(=O)(=O)c4ccccc4)cc3[nH]2)o1`: the AC50 was > 100 µM (inactive). In turn, `CCN(CC(=O)Nc1cccc(S(=O)(=O)N2CCCC2)c1)CC(=O)Nc1ccccc1OC` displayed an AC50 under setting [1] greater than 100 µM. For `CCc1cc2c(NC(Cc3c[nH]c4ccccc34)C(=O)O)nc(C)nc2s1` (centres undefined), the AC50 was > 100 µM (inactive). For `O=C(c1cnc(Cc2c[nH]c3ccccc23)c(I)c1)N1CCCCC1`, under setting [1], the AC50 is 29.6 µM. The compound `COc1ccc(CC(=O)Oc2ccc(C)cc2C)cc1` had an AC50 under setting [1] greater than 100 µM. Still for that read-out and setting: then `CSc1ccccc1NC(=O)c1ccccc1N(Cc1ccccc1)S(C)(=O)=O`, with greater than 100 µM; and `COc1ccc(OCC(O)CNS(=O)(=O)c2cccc(Cl)c2)cc1` (centres undefined), with greater than 100 µM.

On to `Cc1cccc(OCCC(=O)N(C)CC(=O)Nc2cccc3ccccc23)c1`, for which the AC50 was > 100 µM (inactive). With `Cc1cc(OCCCCOc2ccc(S(N)(=O)=O)c(C)c2)ccc1S(N)(=O)=O`, the AC50 is > 100 µM (inactive). Further, under setting [1], the AC50 came out at 49.4 µM. On to `Cc1cnc(NC(=O)Cc2c[nH]c3ccccc23)s1`, for which the AC50 was > 100 µM (inactive). Still for that read-out and setting: then `O=C(COn1nnc2ccc(C(F)(F)F)cc21)Nc1c(Cl)cccc1Cl`, with > 100 µM (inactive). Compound `CC(C)(C)c1ccc(-c2noc(CCC(=O)NCc3ccco3)n2)cc1` displayed an AC50 under setting [1] greater than 100 µM. Take `O=C(Cc1coc2cc(O)ccc12)N1CCN(S(=O)(=O)c2ccc(Br)cc2)CC1`: the AC50 was > 100 µM (inactive). Besides, under setting [1], the AC50 amounted to 42.2 µM. With `C[C@@H](NC(=O)C[C@@H]1CC[C@@H]2[C@H](COC[C@H](O)CN2C(=O)Nc2cccc(F)c2)O1)c1ccccc1`, the AC50 is > 100 µM (inactive). For `COc1ccc(NS(=O)(=O)c2ccc(Oc3c(C#N)cccc3C#N)cc2)cc1`, the AC50 was > 100 µM (inactive). Besides, the AC50 under setting [1] turned out to be 27.5 µM. Take `CC1Cc2ccccc2N1C(=O)CN1C(=O)NC(C)(CCc2ccccc2)C1=O` (centres undefined): the concentration at half-maximal activity (AC50) under setting [1] is greater than 100 µM.

Consider `c1ccc(Cc2nc3ccccc3s2)cc1`, for which the AC50 was > 100 µM (inactive). Under setting [1], the half-maximal activity concentration (AC50) is greater than 100 µM. The compound `Cc1ccc(NS(=O)(=O)c2cc(C(=O)N3CCc4ccccc4C3)ccc2Cl)cc1` came in with an AC50 under setting [1] of 33.3 µM. In the case of `O=C1Nc2ccc(F)cc2C12Nc1ccccc1-c1nnc(SCc3ccccc3)nc1O2` (centres undefined), the AC50 is > 100 µM (inactive). `CCN(CC)CCN(C(=O)c1ccc2c(c1)CCCC2)c1nc2ccc(F)cc2s1` had an AC50 under setting [1] of 32.5 µM. Regarding `COC(=O)C(Cc1csc2ccc(Cl)cc12)NC(=O)c1ccc(Cl)cc1` (centres undefined), the AC50 was > 100 µM (inactive). The same compound registered an AC50 under setting [1] of 18.4 µM. On to `O=C(Cc1cccc(NC(=O)C2CCN(C(=O)C3CCCCC3)CC2)c1)Nc1cccc(C(=O)N2CCCC2)c1`, for which the AC50 under setting [1] is greater than 100 µM.

As to `Cc1nc(C)c(-c2ccn(S(=O)(=O)c3ccc(Cl)cc3)n2)o1`, the AC50 is > 100 µM (inactive). Under setting [1], `CCOc1ccc2[nH]c3c(NCCN(C)C)ncnc3c2c1` had an AC50 greater than 100 µM. Regarding `COc1ccc(-c2cn3c(C)c(C(=O)Nc4cccc(C)n4)sc3n2)cc1`, the AC50 was > 100 µM (inactive). Same read-out and setting: then `Cc1ccccc1CSCC(=O)Nc1ccccc1F`, with > 100 µM (inactive).

The compound `CC(=O)c1ccc(OCC(=O)Nc2ccc3c(c2)CCC3)cc1` yielded an AC50 under setting [1] greater than 100 µM. Same read-out and setting: the figure for `O=C(NCc1ccco1)c1ccc2ccccc2n1` is greater than 100 µM.

In the case of `COc1ccc(OCCC(=O)OCC(=O)NCCC2=CCCCC2)cc1`, the AC50 under setting [1] is greater than 100 µM. Take `OC(COc1ccc(Cl)cc1)CN1CCN(c2ccccn2)CC1` (centres undefined): the AC50 was > 100 µM (inactive). Under setting [1], `CC(=O)Nc1ccc(OCC(=O)N2CCC(Cc3ccccc3)CC2)cc1` showed an AC50 greater than 100 µM. The same measure, in the same setting: then `CNC(=O)c1sc(-c2ccccn2)nc1C`, with greater than 100 µM; and `Cc1ccc(C)c(N2CCN(C(=O)CCS(=O)(=O)c3ccc4c(c3)oc(=O)n4C)CC2)c1`, with greater than 100 µM. In turn, `CCOc1ccccc1/C=C/c1cc(C(=O)O)c2ccccc2n1` returned an AC50 under setting [1] of 35.3 µM. As to `COC(=O)CN1C(=S)N(c2ccc(Cl)cc2)C(=O)C1CC(=O)Nc1ccc(F)cc1` (centres undefined), the AC50 is > 100 µM (inactive). Under setting [1], the AC50 is greater than 100 µM. As for `Cc1noc(C)c1S(=O)(=O)N(Cc1ccccc1)C(C)C`, under setting [1], the AC50 was greater than 100 µM. As to `CS(=O)(=O)c1cccc(C(=O)Nc2cccc(-c3nc4ccccc4[nH]3)c2)c1`, the AC50 is > 100 µM (inactive). Still for that read-out and setting: the figure for `O=C(CN1C(=O)c2ccccc2C1=O)Nc1cccc(S(=O)(=O)Nc2ccccc2Cl)c1` is > 100 µM (inactive). The compound `O=C1c2ccccc2C(c2nnnn2Cc2ccccc2)N1Cc1cccc(F)c1` (centres undefined) gave an AC50 under setting [1] greater than 100 µM. As to `O=[N+]([O-])c1ccc2nc(-c3ccccc3[N+](=O)[O-])[nH]c2c1`, the AC50 is > 100 µM (inactive). The same compound came in with an AC50 under setting [1] greater than 100 µM. As for `CCc1ccc2nc(N(CCCN(C)C)C(=O)c3ccc4c(c3)OCCO4)sc2c1`, the AC50 is > 100 µM (inactive). Turning to `O=C(CCCOc1ccc(Cl)cc1Cl)Nc1ccccc1C(=O)O`, the AC50 under setting [1] worked out at 33.7 µM. The same measure, in the same setting: the figure for `O=C(CSCc1c(Cl)cccc1Cl)NCc1ccccn1` is greater than 100 µM. For `O=C(CN1CCC(n2nnc3cc(F)ccc32)CC1)N1CCc2ccccc2C1`, the AC50 was > 100 µM (inactive).

Turning to `Cc1ccc2nc(SCC(=O)c3ccc(O)cc3O)[nH]c2c1`, the AC50 was > 100 µM (inactive).

Regarding `Cc1ccc(OCC(O)CN2CCN(c3ccccn3)CC2)c(C)c1` (centres undefined), the AC50 is > 100 µM (inactive). The compound further returned an AC50 under setting [1] of 45.6 µM.

`Cc1ccsc1C(=O)C1CCCN(Cc2cc(F)ccc2-n2cccn2)C1` (centres undefined) showed a half-maximal activity concentration (AC50) under setting [1] greater than 100 µM. For `CN1CCN(C(=O)c2cc3sc4ccccc4c3s2)CC1`, the AC50 was > 100 µM (inactive). `CC(NC(=O)C12CC3CC(C)(CC(C)(C3)C1)C2)c1ccncc1` (centres undefined) registered an AC50 under setting [1] greater than 100 µM.

On to `C=CCn1c(-c2cc3cccc(OC)c3o2)n[nH]c1=S`, for which the AC50 was > 100 µM (inactive).

As to `COc1ccc(OC)c(NC(=O)c2c3c(nc4ccccc24)CCC3)c1`, the AC50 is > 100 µM (inactive).

As to `CCOc1ccccc1OCCCC(=O)N1CCN(S(=O)(=O)c2cc(F)ccc2F)CC1`, the AC50 was > 100 µM (inactive). In turn, `COc1cccc(CN(C)Cc2nc(Cc3ccccc3Cl)no2)c1` showed an AC50 under setting [1] of 51.7 µM. As to `N#Cc1nc(Cc2ccccc2)oc1N1CCCC1`, the AC50 is > 100 µM (inactive). For `COc1ccccc1NC(=O)Cn1cc(C(=O)c2ccco2)c2ccccc21`, the AC50 was > 100 µM (inactive). In addition, the AC50 under setting [1] was 31.3 µM.

With `O=C(Nc1cccnc1)c1ccc([N+](=O)[O-])o1`, the AC50 was > 100 µM (inactive). The compound `O=C(CSc1nnc(-c2ccccc2F)n1C1CC1)Nc1cccnc1Cl` displayed a half-maximal activity concentration (AC50) under setting [1] greater than 100 µM. As for `Cc1cc(C(=O)Nc2cccc3c2O[C@H](CN(C)S(=O)(=O)c2ccc(Cl)cc2)[C@H](C)CN([C@H](C)CO)C3=O)n(C)n1`, the AC50 was > 100 µM (inactive).

Regarding `COc1ccc(C2CC(=O)Oc3cc(C)cc(C)c32)cc1` (centres undefined), under setting [1], the AC50 was greater than 100 µM. Same read-out and setting: then `O=S1(=O)N[C@H](Cc2ccccc2)COc2cc(N3CCSCC3)ccc21`, with greater than 100 µM; and `CC(=O)Nc1ccc(-c2ccnc3c2CC(C)(C(=O)Nc2ccc4c(c2)OCO4)O3)cc1` (centres undefined), with greater than 100 µM. Regarding `Cc1ccc(-n2nnnc2-c2ccccc2Br)cc1`, the AC50 was > 100 µM (inactive). Also, the AC50 under setting [1] turned out to be 46 µM.
